In ChEMBL document CHEMBL3217741, “Synthesis of 1,4-triazole linked zanamivir dimers as highly potent inhibitors of influenza A and B” (Medchemcomm, 2013):
pEC50: −log10 of the molar value.

system: Influenza B virus; assay: microbe, parasite or virus in culture; settings: B/Harbin/07/94, MDCK, 72 h
Description: Antiviral activity against Influenza B virus (B/Harbin/07/94) infected in MDCK cells assessed as reduction of virus-induced cytopathic effect after 72 hrs by MTT assay

In order of falling pEC50:
1. CC(=O)N[C@H]1[C@H]([C@H](OC(=O)NCCCCCCCn2cc(CCCCNC(=O)O[C@@H]([C@@H]3OC(C(=O)O)=C[C@H](NC(=N)N)[C@H]3NC(C)=O)[C@H](O)CO)nn2)[C@H](O)CO)OC(C(=O)O)=C[C@@H]1NC(=N)N  9.49
2. CC(=O)N[C@H]1[C@H]([C@H](OC(=O)NCCCCCCCCc2cn(CCCCCCCNC(=O)O[C@@H]([C@@H]3OC(C(=O)O)=C[C@H](NC(=N)N)[C@H]3NC(C)=O)[C@H](O)CO)nn2)[C@H](O)CO)OC(C(=O)O)=C[C@@H]1NC(=N)N  9.41
3. CC(=O)N[C@H]1[C@H]([C@H](OC(=O)NCCCCc2cn(CCCNC(=O)O[C@@H]([C@@H]3OC(C(=O)O)=C[C@H](NC(=N)N)[C@H]3NC(C)=O)[C@H](O)CO)nn2)[C@H](O)CO)OC(C(=O)O)=C[C@@H]1NC(=N)N  9.37
4. CC(=O)N[C@H]1[C@H]([C@H](OC(=O)NCCCn2cc(CCNC(=O)O[C@@H]([C@@H]3OC(C(=O)O)=C[C@H](NC(=N)N)[C@H]3NC(C)=O)[C@H](O)CO)nn2)[C@H](O)CO)OC(C(=O)O)=C[C@@H]1NC(=N)N  9.29
5. CC(=O)N[C@H]1[C@H]([C@H](OC(=O)NCCCn2cc(CCCc3cn(CCCNC(=O)O[C@@H]([C@@H]4OC(C(=O)O)=C[C@H](NC(=N)N)[C@H]4NC(C)=O)[C@H](O)CO)nn3)nn2)[C@H](O)CO)OC(C(=O)O)=C[C@@H]1NC(=N)N  9.19
6. CC(=O)N[C@H]1[C@H]([C@H](OC(=O)NCCCCCn2cc(CCCCNC(=O)O[C@@H]([C@@H]3OC(C(=O)O)=C[C@H](NC(=N)N)[C@H]3NC(C)=O)[C@H](O)CO)nn2)[C@H](O)CO)OC(C(=O)O)=C[C@@H]1NC(=N)N  9.10
7. CC(=O)N[C@H]1[C@H]([C@H](OC(=O)NCCCCCn2cc(CCCCCc3cn(CCCCCNC(=O)O[C@@H]([C@@H]4OC(C(=O)O)=C[C@H](NC(=N)N)[C@H]4NC(C)=O)[C@H](O)CO)nn3)nn2)[C@H](O)CO)OC(C(=O)O)=C[C@@H]1NC(=N)N  9.06
8. CC(=O)N[C@H]1[C@H]([C@H](O)[C@H](O)CO)OC(C(=O)O)=C[C@@H]1NC(=N)N [ZANAMIVIR]  6.83
9. CCOC(=O)C1=C[C@@H](OC(CC)CC)[C@H](NC(C)=O)[C@@H](N)C1 [OSELTAMIVIR]  6.23
